Experimental findings from patent publication US12233130B2, “Covalently-modified steroid acid-peptides having enhanced stability and/or biological activity” (DEFENCE THERAPEUTICS INC., priority 2022, dated 2025) are described below.

Series [1] can be described thus: Stability testing (impurities by HPLC). In kind it is physicochemical. To be noted: dimer vs monomer. From the text:
GMP synthesis of the CDCA-C-SV40 monomer yielded a white powder and the results of initial stability testing is summarized below:
As shown above, two main impurities were detected by HPLC relating to the reactivity of the free thiol group of the CDCA-C-SV40 monomer, namely impurities resulting from oxidation of the thiol group (Impurity A) and the formation an intermolecular disulfide bond via the thiol groups of two CDCA-C-SV40 monomers, producing a (CDCA-C-SV40)2 dimer (Impurity B).
To attempt to improve stability, the synthesis protocol of CDCA-C-SV40 was modified to produce the conjugate directly in its dimerized form (Impurity B). […] At 25° C., total impurities rose only slightly from 1.6% at Day 0 to 2.1% after 3 months. At 40° C., total impurities rose from 1.6% at Day 0 to 1.7% after 5 days, 2.4% after 10 days, and to 3.7% after 30 days.

The test system of series [2] is 4T1, EL4, CT-26, B16 and E0771 tumor cell lines. Kind of series: Cell death by flow cytometry on five tumor cell lines. In kind it is cell-based. To be noted: 95 and 190 μM. The protocol:
(§1) Apoptosis analysis was conducted by flow-cytometry. Briefly, target cells were first treated then washed. Treated cells were then re-suspended in Annexin-V staining buffer prior to staining with Annexin-V and propidium iodine (PI). Fifteen minutes later, cells were washed prior to analysis using BD FACS™ Diva on CANTOII™.
Background: In flow cytometry, cells or beads pass a laser one at a time.

The next series has as its system EL4 lymphoma. Kind of series: EL4 tumor model in vivo (tumor growth, survival). Also noted: species or system mice. To be noted: highest tested dose (190 μM), every 48 h, 5 injections. The protocol: Female C57BL/6 mice (n=10/group) received a SC injection of 5×10^5 EL4 cells at Day 0. […] For all depletion studies, antibodies were injected via the intraperitoneal route at days 0, 3 and 6 at a concentration of 200 μg/injection. Tumor size and animal survival for all of the above listed in vivo studies was followed thereafter using a digital caliber until reaching endpoints (ulceration or a tumor volume ≥1000 mm^3).

In a further series the test system is EL4 lymphoma cells. Kind of series: Apoptosis analysis by flow cytometry (Annexin-V/PI). Format: cell-based. The protocol:
as §1

Series [3] relates to bone marrow-derived dendritic cells (DCs). Briefly: Apoptosis analysis by flow cytometry on normal cells. In kind it is cell-based, mouse. To be noted: 190 μM. The protocol: Mouse bone marrow derived DCs (BMDCs) were generated by flushing the whole marrow from mouse femurs using RPMI™ 1640 supplemented with 10% fetal bovine serum (FBS), 50 U/mL Penicillin-Streptomycin, 2 mM L-glutamine, 10 mM HEPES, 1% MEM Non-essential Amino Acids, 1 mM Sodium Pyruvate, 0.5 mM β-mercaptoethanol. Following red blood cell lysis, cells were then cultured in media supplemented with 50 ng/ml murine recombinant GM-CSF. The media was changed on days 2, 4, 6 and 8. On day 9, the media was replaced to include recombinant murine GM-CSF and LPS from Escherichia coli 0111 (1 ng/mL) to stimulate DC maturation. Mature DCs were assessed by flow cytometry for their surface expression of CD3, CD19, NK1.1, CD11c, CD80, CD86, and I-A^b.
as §1

In series [4] the test system is mesenchymal stem cells (MSCs). The description is as above. Format: cell-based. The following applies: 190 μM. As for the experimental part: as §1
The next series concerns macrophages. Described as above. In kind it is cell-based. The following applies: 190 μM. As for the experimental part:
as §1

Series [5] deals with EL4 lymphoma, B16 melanoma, E0771 breast cancer, CT-26 colon carcinoma, 4T1 breast cancer, MBA-MD-468, H460 and A549 lung cancer cells. Briefly: Cytotoxicity screen of bile acid-SV40 conjugates (Annexin-V) on eight cancer cell lines. Format: cell-based. To be noted: 190 μM, all eight tumor cell lines tested. As for the experimental part:
Annexin-V staining percentage after treatment with different bile acid-SV40 conjugates (190 μM) is shown relative to live cancer cells (i.e., PBS treated cancer cells) by flow cytometry. Cancer cell lines tested were EL4 lymphoma, B16 melanoma, E0771 breast cancer, CT-26 colon carcinoma, 4T1 breast cancer, MBA-MD-468 triple-negative breast cancer, human H460 lung cancer, and human A549 lung cancer. […] SV40 alone was also tested as a negative control.
as §1

Another series deals with EL4 cells. Briefly: Endosomal escape: apoptosis assay with exogenous cytochrome C. In kind it is cell-based. To be noted: cytochrome C alone. As for the experimental part: Endosomal leakage was assessed using two different approaches; the first strategy utilizes the FRET sensor CCF4-AM, a β-lactamase substrate. Briefly, EL4 cells were treated with 1 μM CCF4-AM for 1 h followed by the addition of 10 mg/ml of β-lactamase in the presence or absence of CA-C-SV40 (at concentration of 190 μM) for 3 h at 37° ° C. The cells were then washed, and fresh media added for an incubation period of 16 h at 37° C. The loss of FRET signal between the coumarin (donor) and fluorescein (acceptor) fluorophores was quantified by flow cytometry. For the apoptosis assay, 10^5 EL4 cells were first supplemented with 10 mg/ml of exogenous rCyt-C for 6 h at 37° C. in the presence or absence of CA-C-SV40 (at a concentration of 190 μM). Once the incubation period completed, the cells were washed with ice cold PBS, then stained for Annexin-V according to manufacturer's instructions prior to analysis using BD FACS Diva on CANTOII.
Cytochrome C is a protein that is normally entrapped in the mitochondria but can be released upon intrinsic signaling known to trigger apoptosis. An experiment was designed where recombinant cytochrome C was added to EL4 cells either alone or in combination with CA-C-SV40 ([…]) (FIG. 3A).

Positions of bridges follow the written chain, without caps; N, C: chain ends. Residues, ends and D or L forms follow the SMILES beside them. Chains are numbered I, II in the order given. *: point of attachment. Chenodeoxycholyl = C[C@H](CCC(=O)*)[C@H]1CC[C@H]2[C@@H]3[C@H](O)C[C@@H]4C[C@H](O)CC[C@]4(C)[C@H]3CC[C@]12C; Cholyl = C[C@H](CCC(=O)*)[C@H]1CC[C@H]2[C@@H]3[C@H](O)C[C@@H]4C[C@H](O)CC[C@]4(C)[C@H]3C[C@H](O)[C@]12C

For the compound `CC(C)[C@H](NC(=O)[C@H](CCCCN)NC(=O)[C@H](CCCNC(=N)N)NC(=O)[C@H](CCCCN)NC(=O)[C@H](CCCCN)NC(=O)[C@H](CCCCN)NC(=O)[C@@H]1CCCN1C(=O)CNC(=O)[C@H](Cc1ccc(O)cc1)NC(=O)CNC(=O)[C@H](CSSC[C@H](NC(=O)CC[C@@H](C)[C@H]1CC[C@H]2[C@@H]3[C@H](O)C[C@@H]4C[C@H](O)CC[C@]4(C)[C@H]3CC[C@]12C)C(=O)NCC(=O)N[C@@H](Cc1ccc(O)cc1)C(=O)NCC(=O)N1CCC[C@H]1C(=O)N[C@@H](CCCCN)C(=O)N[C@@H](CCCCN)C(=O)N[C@@H](CCCCN)C(=O)N[C@@H](CCCNC(=N)N)C(=O)N[C@@H](CCCCN)C(=O)N[C@H](C(=O)NCC(=O)NCC(=O)O)C(C)C)NC(=O)CC[C@@H](C)[C@H]1CC[C@H]2[C@@H]3[C@H](O)C[C@@H]4C[C@H](O)CC[C@]4(C)[C@H]3CC[C@]12C)C(=O)NCC(=O)NCC(=O)O` [(CDCA-C-SV40)2] (I: Chenodeoxycholyl-CGYGPKKKRKVGG-OH / II: Chenodeoxycholyl-CGYGPKKKRKVGG-OH; disulfide I:1-II:1), the “stability relative to corresponding monomer” value in [1] was “markedly higher stability”. In addition, the cytotoxicity entry in series [2] is reported as “potent cytotoxicity”. As for `CSCC[C@H](NC(=O)[C@H](CS)NC(=O)CC[C@@H](C)[C@H]1CC[C@H]2[C@@H]3[C@H](O)C[C@@H]4C[C@H](O)CC[C@]4(C)[C@H]3C[C@H](O)[C@]12C)C(=O)NCC(=O)N[C@@H](CCCNC(=N)N)C(=O)N[C@H](C(=O)N[C@@H](CCCNC(=N)N)C(=O)N[C@H](C(=O)N[C@@H](CCCCN)C(=O)N[C@H](C(=O)N[C@H](C(=O)N[C@@H](CCCCN)C(=O)N[C@@H](CCCCN)C(=O)N[C@@H](C)C(=O)N[C@@H](C)C(=O)NCC(=O)NCC(=O)O)C(C)C)[C@@H](C)O)[C@@H](C)O)C(C)C` [CA-C-NLS1 RPS17] (Cholyl-CMGRVRTKTVKKAAGG-OH; N-terminus and C-terminus assumed), the tumor growth result in the series on EL4 lymphoma was “significantly delayed tumor growth”. Turning to `CC[C@H](C)[C@H](NC(=O)[C@H](CCCNC(=N)N)NC(=O)[C@H](CCCCN)NC(=O)[C@H](CCSC)NC(=O)[C@H](CC(C)C)NC(=O)[C@H](Cc1c[nH]cn1)NC(=O)[C@@H](NC(=O)[C@@H](NC(=O)[C@H](Cc1ccc(O)cc1)NC(=O)CNC(=O)[C@H](C)NC(=O)[C@@H](NC(=O)[C@H](CCCCN)NC(=O)[C@H](CC(N)=O)NC(=O)[C@H](CCCNC(=N)N)NC(=O)[C@H](CC(C)C)NC(=O)[C@H](CCCCN)NC(=O)[C@H](CCCCN)NC(=O)[C@H](CO)NC(=O)[C@H](CS)NC(=O)CC[C@@H](C)[C@H]1CC[C@H]2[C@@H]3[C@H](O)C[C@@H]4C[C@H](O)CC[C@]4(C)[C@H]3C[C@H](O)[C@]12C)[C@@H](C)CC)C(C)C)[C@@H](C)O)C(=O)O` [CA-C-NLS3 RPS17] (Cholyl-CSKKLRNKIAGYVTHLMKRI-OH; N-terminus and C-terminus assumed), the tumor growth result with EL4 lymphoma was “significantly delayed tumor growth”. `CC(C)[C@H](NC(=O)[C@H](CCCCN)NC(=O)[C@H](CCCNC(=N)N)NC(=O)[C@H](CCCCN)NC(=O)[C@H](CCCCN)NC(=O)[C@H](CCCCN)NC(=O)[C@@H]1CCCN1C(=O)CNC(=O)[C@H](Cc1ccc(O)cc1)NC(=O)CNC(=O)[C@H](CS)NC(=O)CC[C@@H](C)[C@H]1CC[C@H]2[C@@H]3[C@H](O)C[C@@H]4C[C@H](O)CC[C@]4(C)[C@H]3C[C@H](O)[C@]12C)C(=O)NCC(=O)NCC(=O)O` [CA-C-SV40] (Cholyl-CGYGPKKKRKVGG-OH): the “cytotoxicity of cholic acid-NLS conjugates” value in the series on EL4 lymphoma cells (190 μM, Annexin-V staining) was “notably higher than that of CA-C-GWG-SV40”. Moreover, the “apoptosis in normal or healthy cells” value (in [3]; in [4]; with macrophages) was “induce apoptosis” in each case. With `CC(C)[C@H](NC(=O)[C@H](CCCCN)NC(=O)[C@H](CCCNC(=N)N)NC(=O)[C@H](CCCCN)NC(=O)[C@H](CCCCN)NC(=O)[C@H](CCCCN)NC(=O)[C@@H]1CCCN1C(=O)CNC(=O)[C@H](Cc1ccc(O)cc1)NC(=O)CNC(=O)[C@H](CS)NC(=O)CC[C@@H](C)[C@H]1CC[C@H]2[C@@H]3[C@H](O)C[C@@H]4C[C@H](O)CC[C@]4(C)[C@H]3CC[C@]12C)C(=O)NCC(=O)NCC(=O)O` [CDCA-C-SV40] (Chenodeoxycholyl-CGYGPKKKRKVGG-OH), the cytotoxic activity in series [5] was 100%. In the case of `CC(=O)N[C@@H](CS)C(=O)O` [NAC, N-acetylcysteine], in the series on EL4 lymphoma cells (CA-C-SV40 at higher doses (IC100)), the “rescue from CA-C-SV40-triggered cell death” value is recorded as “incomplete but significant blockade”. In the case of “SV40 NLS: nuclear localization signal from SV40 large T-antigen (SEQ ID NO: 2), tested alone as negative control”, the cytotoxic activity result in the series with EL4 lymphoma cells (separately, at any of the concentrations tested) is “did not exhibit any cytotoxic activity”.

Regarding “cytochrome C: recombinant cytochrome C added to EL4 cells as cargo”, the cell death result in the series with EL4 cells is recorded as “did not trigger cell death”.
